Laboratory results reported in PubChem BioAssay AID1963429 (Molecular Pharmacology Branch, DTP, NCI, 2024).
Values joined by “and” are separate entries in the source; they are usually repeats but may differ in a detail not shown here. Equal entries are not always repeated.

Test system: 126254-015-R-J1-PDC complex spheroid growth, % test/control
Test: Anticancer human tumor 126254-015-R-J1-PDC patient-derived soft tissue sarcoma cell line growth inhibition [Asc]
Settings: for viability, T/C: stronger effect = lower value; active = viability on the fitted dose curve at most 10% of control; inactive = the rest
Method: Multicellular complex tumor spheroid response to apoptosis pathway targeting inhibitors Alrizomadlin, Pelcitoclax, and Dasminapant in combination with a variety of drugs and investigational agents in selected tumor cell lines
The MDM2 inhibitor alrizomadlin, the Bcl-2/Bcl-xL inhibitor pelcitoclax, and the IAPs inhibitor dasminapant were evaluated both individually and in combination with standard of care and investigational anticancer small molecules within a complex spheroid model of solid tumors. . Complex spheroids include a stromal component modeled by human endothelial cells (HUVEC) and fibroblasts modeled by human mesenchymal stem cells (MSCs). The concentration ranges selected for each drug and investigational agent were based upon clinically achievable concentrations if the clinical Cmax of the agent was known.
Compounds. The drugs and investigational agents: alrizomadlin (APG-115; NSC831270), pelcitoclax (APG-1252; NSC835773), dasminapant (APG-1387;NSC834197), TAK-243 (NSC785004), copanlisib (NSC809693), olaparib (NSC753686), talazoparib (NSC767125), cobimetinib (NSC 768068), eltanexor (KPT-8602, NSC 794443), abemaciclib (NSC 768073), sotorasib (NSC818433), adagrasib (NSC 831453), MRTX-1133 (NSC 836407), Iadademestat (ORY1001, NSC 806812), and RMC-4630 (NSC839698), were obtained from the NCI Developmental Therapeutics Program Chemical Repository. The FDA-approved anticancer drug set is available from the Developmental Therapeutics Program at https://dtp.cancer.gov/organization/dscb/obtaining/available plates.htm. […] The stock solutions were prepared in dimethyl sulfoxide (DMSO, Sigma-Aldrich, St. Louis, MO, cat. D2650) at 800-fold the tested concentration and stored at -70 degrees C prior to their use. All drugs and investigational agents were tested over a range starting from a high concentration at or near the clinical Cmax and decreasing in half-log increments. If the clinical Cmax for an agent had not been determined, the highest concentration tested was 10 microM.
The patient-derived cancer (PDC) cell lines include five colon adenocarcinomas: 186277-243-T-J2-PDC, 616215-338-R-J1-PDC, 439559-082-T-J2-PDC, 463943-066-T-J2-PDC, and 519858-162-T-J1-PDC; three pancreatic carcinomas: 323965-272-R-J2-PDC, 521955-158-R6-J3-PDC, and 521955-158-R2-J5-PDC; two uterine sarcomas: 327498-152-R-J2-PDC and 993429-296-R-J1-PDC; two rhabdomyosarcomas: 755483-174-R-J1-PDC and 772245-204-R-J1-PDC; two soft tissue sarcomas: 126254-015-R-J1-PDC and 494315-158-R-J1-PDC; two malignant fibrous histiocytomas: 317291-083-R-J1-PDC and 596521-263-R-J1-PDC; two breast carcinomas: 171881-019-R-J1-PDC and 885512-296-R-J2-PDC; and one ovarian carcinoma: 6556581-035-R-J-PDC were obtained from the NCI PDMR, (https://pdmr.cancer.gov). The established cell lines HSSY-2 synovial sarcoma (RRID:CVCL 8719), SYO-1 synovial sarcoma (RRID:CVCL_7146), MPNST malignant peripheral neural sheath tumor were obtained from the Sloan Kettering Institute. The following established cell lines were purchased from the American Type Culture Collection (ATCC, Manassas, VA), Sor the received from the NCI repository:, PANC-1 pancreatic carcinoma (CRL-1469, RRID:CVCL_0480), OVCAR-5 ovarian carcinoma (RRID:CVCL_1628), OVCAR-8 ovarian carcinoma (RRID:CVCL_1629), , MCF-7 breast carcinoma (CRL-12584, RRID:CVCL_0031), MDA-MB-231 breast carcinoma (CRL-12532, RRID:CVCL_0062), NCI-H1876 small cell lung carcinoma (CRL-5902, RRID:CVCL_1503), NCI-H510A small cell lung carcinoma (HTB-184, RRID:CVCL_1565), NCI-H1417 (CRL-5869, RRID:CVCL_1469), and NCI-H196 small cell lung carcinoma (CRL-5823, RRID:CVCL_1509). Dr. Peter Houghton (Greehey Children's Cancer Research Institute, University of Texas Health Science Center, San Antonio, TX) provided Rh-18 rhabdomyosarcoma (RRID:CVCL_1659). Pooled donor human umbilical vein endothelial cells (HUVEC, Lonza, cat. CC-2519) and human mesenchymal stem cells (hMSC, Lonza, cat. PT-2501) were purchased from Lonza (Walkersville, MD).
Cell Culture. […]

[1] = compound alone, run of 09/27/2022
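Also: spheroids exposed to compound for seven days.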
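For viability, T/C in this document: 100% = DMSO vehicle control wells.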

C#Cc1c(F)ccc2cc(O)cc(-c3ncc4c(N5CC6CCC(C5)N6)nc(OCC56CCCN5CC(F)C6)nc4c3F)c12 (stereo not drawn)
inactive: viability, T/C (compound 0.0316 µM) 97.4% and 92.6% and 97.8% | viability, T/C (compound 0.1 µM) 92.8% and 89.8% and 108% | viability, T/C (compound 0.316 µM) 100% and 97.5% and 103% | viability, T/C (compound 1 µM) 94.1% and 97.4% and 93.6% | viability, T/C (compound 3.16 µM) 101% and 95% and 92.8% | viability, T/C (compound 10 µM) 82.5% and 76.4% and 72.9%
> 10 µM: IC50 (curve of compound)

C=C(F)C(=O)N1CCN(c2nc(OCC3CCCN3C)nc3c2CCN(c2cccc4cccc(Cl)c24)C3)CC1CC#N (stereo not drawn)
2.45 µM and 2.8 µM and 4.36 µM: IC50 (curve of compound)
active: viability, T/C (compound 10 µM) 0.22% and 0.29% and 0.24%
inactive: viability, T/C (compound 0.0316 µM) 92% and 107% and 106% | viability, T/C (compound 0.1 µM) 96.8% and 102% and 95.5% | viability, T/C (compound 0.316 µM) 94% and 110% and 105% | viability, T/C (compound 1 µM) 92.7% and 106% and 93.5% | viability, T/C (compound 3.16 µM) 37.7% and 43.4% and 69.6%

C=CC(=O)N1CCN(c2nc(=O)n(-c3c(C)ccnc3C(C)C)c3nc(-c4c(O)cccc4F)c(F)cc23)C(C)C1 (stereo not drawn)
> 10 µM: IC50 (curve of compound)
inactive: viability, T/C (compound 0.0316 µM) 93.4% and 99.9% and 105% | viability, T/C (compound 0.1 µM) 106% and 97.6% and 110% | viability, T/C (compound 0.316 µM) 107% and 115% and 109% | viability, T/C (compound 1 µM) 102% and 111% and 112% | viability, T/C (compound 3.16 µM) 120% and 116% and 110% | viability, T/C (compound 10 µM) 88.8% and 91% and 102%

CCN1C(C(=O)NC23CCC(C(=O)O)(CC2)CC3)C(c2cccc(Cl)c2F)C2(C(=O)Nc3cc(Cl)ccc32)C12CCCCC2 (stereo not drawn)
> 3 µM: IC50 [1] | IC50 (curve of compound)
inactive: viability, T/C (compound 0.00949 µM) 105% and 96.1% | viability, T/C (compound 0.03 µM) 95.4% [middle of 15 runs] | viability, T/C (compound 0.0949 µM) 96.8% [middle of 15 runs] | viability, T/C (compound 0.3 µM) 93.5% [middle of 15 runs] | viability, T/C (compound 0.949 µM) 96.8% [middle of 15 runs]

CCN1CCN(Cc2ccc(Nc3ncc(F)c(-c4cc(F)c5nc(C)n(C(C)C)c5c4)n3)nc2)CC1
inactive: viability, T/C (compound 0.00316 µM) 99.2% and 102% (2×) | viability, T/C (compound 0.01 µM) 104% and 97% and 96.8% | viability, T/C (compound 0.0316 µM) 109% (2×) and 99% | viability, T/C (compound 0.1 µM) 94.1% and 103% and 115% | viability, T/C (compound 0.316 µM) 114% and 110% and 112% | viability, T/C (compound 1 µM) 110% and 102% and 112%
> 1 µM: IC50 (curve of compound)

CNC(C)C(=O)NC1CN(S(=O)(=O)c2cccc(S(=O)(=O)N3CCC4CCC(C(=O)NC(c5ccccc5)c5ccccc5)N4C(=O)C(NC(=O)C(C)NC)C3)c2)CCC2CCC(C(=O)NC(c3ccccc3)c3ccccc3)N2C1=O (stereo not drawn)
> 1 µM: IC50 (compound alone, run of 10/03/2022)
inactive: viability, T/C (compound 0.00316 µM) 94.8% and 99.9% | viability, T/C (compound 0.01 µM) 86.8% [middle of 15 runs] | viability, T/C (compound 0.0316 µM) 76.6% [middle of 15 runs] | viability, T/C (compound 0.1 µM) 64.3% [middle of 15 runs] | viability, T/C (compound 0.316 µM) 59.9% [middle of 15 runs] | viability, T/C (compound 1 µM) 55.5% [middle of 15 runs]
> 1 µM and 0.845 µM: IC50 (curve of compound)

COc1c(OCCCN2CCOCC2)ccc2c3n(c(=NC(=O)c4cnc(N)nc4)nc12)CCN3
0.0536 µM and 0.0525 µM and 0.076 µM: IC50 (curve of compound)
inactive: viability, T/C (compound 0.00316 µM) 98.8% and 93% and 88.2% | viability, T/C (compound 0.01 µM) 87.4% and 90.6% and 95.3% | viability, T/C (compound 0.0316 µM) 60.5% and 65.2% and 66.9% | viability, T/C (compound 0.1 µM) 37.3% and 29.9% and 45.1% | viability, T/C (compound 0.316 µM) 16.1% and 17.7% and 24.1%
9.83% and 12.4% and 16.3%: viability, T/C (compound 1 µM)

Cc1c(S(C)(=O)=O)c(-c2cc(F)cc(N3CCN(c4ccc(NS(=O)(=O)c5ccc(NC(CCN6CCC(C(=O)OCCCP(=O)(O)O)CC6)CSc6ccccc6)c(S(=O)(=O)C(F)(F)F)c5)cc4)CC3)c2)c(-c2ccc(Cl)cc2)n1C(C)C (stereo not drawn)
> 10 µM: IC50 [1]
inactive: viability, T/C (compound 0.1 µM) 86.8% [middle of 14 runs] | viability, T/C (compound 0.316 µM) 85.8% [middle of 13 runs] | viability, T/C (compound 1 µM) 84.3% [middle of 14 runs] | viability, T/C (compound 3.16 µM) 87.8% [middle of 14 runs] | viability, T/C (compound 10 µM) 81.8% [middle of 14 runs]

Cc1nc(N2CCC3(CC2)COC(C)C3N)c(CO)nc1Sc1ccnc(N)c1Cl (stereo not drawn)
> 3 µM and 1.26 µM and 1.51 µM: IC50 (curve of compound)
inactive: viability, T/C (compound 0.00949 µM) 94.9% and 93.9% and 98.2% | viability, T/C (compound 0.03 µM) 103% and 83.5% and 93.7% | viability, T/C (compound 0.0949 µM) 86.2% and 84% and 84.9% | viability, T/C (compound 0.3 µM) 84.7% and 73.4% and 69.1% | viability, T/C (compound 0.949 µM) 76.9% and 51.7% and 54.3% | viability, T/C (compound 3 µM) 50.1% and 41.1% and 43.9%

Cn1ncnc1[C@H]1c2n[nH]c(=O)c3cc(F)cc(c23)N[C@@H]1c1ccc(F)cc1
inactive: viability, T/C (compound 0.000316 µM) 93.2% and 98% and 104% | viability, T/C (compound 0.001 µM) 95.6% and 106% and 103% | viability, T/C (compound 0.00316 µM) 90.9% and 91% and 86.1% | viability, T/C (compound 0.01 µM) 80.1% and 88.7% and 90.3% | viability, T/C (compound 0.0316 µM) 91.6% and 90% and 79.6% | viability, T/C (compound 0.1 µM) 80.9% and 89.7% and 70.5%
> 0.1 µM: IC50 (curve of compound)

NC(=O)C(=Cn1cnc(-c2cc(C(F)(F)F)cc(C(F)(F)F)c2)n1)c1cncnc1
0.0499 µM and 0.0456 µM and 0.121 µM: IC50 (curve of compound)
inactive: viability, T/C (compound 0.000949 µM) 104% and 107% and 110% | viability, T/C (compound 0.003 µM) 92.3% and 94% and 104% | viability, T/C (compound 0.00949 µM) 86.1% and 82.2% and 93.2% | viability, T/C (compound 0.03 µM) 63.4% and 58.5% and 84.6% | viability, T/C (compound 0.0949 µM) 33.2% and 34.4% and 57.5% | viability, T/C (compound 0.3 µM) 13.9% and 15.5% and 19.8%

NC1CCC(NC2CC2c2ccccc2)CC1 (stereo not drawn)
inactive: viability, T/C (compound 0.000316 µM) 96.7% and 95.9% and 95.3% | viability, T/C (compound 0.001 µM) 87.1% and 102% and 107% | viability, T/C (compound 0.00316 µM) 96.5% and 88.6% and 98% | viability, T/C (compound 0.01 µM) 92.1% and 90.5% and 103% | viability, T/C (compound 0.0316 µM) 90.3% and 85.1% and 100% | viability, T/C (compound 0.1 µM) 84.9% and 93% and 96.2%
> 0.1 µM: IC50 (curve of compound)

O=C(c1cc(Cc2n[nH]c(=O)c3ccccc23)ccc1F)N1CCN(C(=O)C2CC2)CC1
inactive: viability, T/C (compound 0.0316 µM) 95.9% and 107% and 96.9% | viability, T/C (compound 0.1 µM) 93.1% and 96.8% and 103% | viability, T/C (compound 0.316 µM) 88.4% and 102% (2×) | viability, T/C (compound 1 µM) 86.6% and 93.3% and 97.7% | viability, T/C (compound 3.16 µM) 79.3% and 83.1% and 87.7% | viability, T/C (compound 10 µM) 64.2% and 68.1% and 68.5%
> 10 µM: IC50 (curve of compound)

O=C(c1ccc(F)c(F)c1Nc1ccc(I)cc1F)N1CC(O)([C@@H]2CCCCN2)C1
0.699 µM and 0.755 µM and > 1 µM: IC50 (curve of compound)
inactive: viability, T/C (compound 0.00316 µM) 103% and 94.5% and 96.1% | viability, T/C (compound 0.01 µM) 109% (2×) and 105% | viability, T/C (compound 0.0316 µM) 102% (2×) and 93.1% | viability, T/C (compound 0.1 µM) 91.6% and 90.3% and 101% | viability, T/C (compound 0.316 µM) 66.5% and 70.8% and 78.6% | viability, T/C (compound 1 µM) 42.6% and 42.9% and 55.1%
